Test results published in US6660835B1, “Lead substances and their use as therapeutics” (priority 1998, dated 2003).
Ends that are not written are not given here.

Legend:
[1] = test system: S. epidermidis agr P3 promoter; settings: peptide 200 nM; for Specific CAT activity: S. epidermidis, without peptide 12.5
S. aureus Newman = experiment: Exoprotein and surface-associated protein production, Tricine SDS-PAGE; settings: 1 μM, 16 h culture
Method: FIG. 6: Influence of the S. epidermidis pheromone and its derivatives on the production of exoproteins and surface-associated proteins in S. aureus Newman. (A) Exoproteins: basic medium was inoculated with 1/100 vol. of a preculture of S. aureus Newman. At the same time, the pheromone or one of its derivatives was added at a concentration of 1 μM. The peptides were dissolved in DMSO (dimethylsulfoxide); a control received only DMSO. Culture filtrates (20 μl) of the cultures harvested after 16 h of growth were applied to Tricine SDS-PAGE and stained with Coomassie Blue. (B) Surface-associated proteins: pellets of the centrifuged 16 h cultures were dissolved in SDS-PAGE loading buffer containing 1% SDS, boiled at 1000C for 5 min, and applied to Tricine SDS-PAGE after removal of insoluble material by centrifugation. […] (SEQ ID NO: 17); (6) control (with DMSO); (7) molecular weight standards.
The effect of the synthetic cyclic peptides on the production pattern of surface-associated proteins and exoproteins was investigated (for Exoprotein analysis of S. epidermidis see Experimental procedures).
The synthetic cyclic peptides were added at a concentration of 1 μM to a culture that was inoculated by 1/100 vol. of a preculture; the cultures were incubated for 16 h. […]

Row | Substance | Specific CAT activity [1] | surface-associated proteins synthesized (S. aureus Newman; cell pellets) | reduction of exoprotein production (S. aureus Newman; culture filtrate) | effect on CAT activity [1]
1 | SVCASYF (not fully specified (bridges); also: thioester linkage to Cys3; listed as Staphylococcus epidermidis) | 8.9 U/mg protein | – | – | –
2 | SVc[CASYF]: S. epidermidis pheromone lacking the original aspartate residue at the N-terminus (SVXASYF; thiolactone cyclisation; VARIANT (3) C-terminal cyclyzed through thioester linkage to cystine residue 3; listed as Staphylococcus epidermidis) | 16.1 U/mg protein | synthesized in higher amounts | most pronounced | very small stimulatory effect
